Experimental data published in publication PMC7961380, “A Systematic Study of the In Vitro Pharmacokinetics and Estimated Human In Vivo Clearance of Indole and Indazole-3-Carboxamide Synthetic Cannabinoid Receptor Agonists Detected on the Illicit Drug Market” (Molecules, 2021).
Several values for one entry are separate records, joined by “and”; a condition that tells them apart may be missing. Identical values can stand only once. Like-named read-outs stand apart in the source and are kept apart here.

Experiments:
[1] = Plasma protein binding by equilibrium dialysis; assay type: in vitro ADME, human; conditions: for fraction unbound at 5 h, 10 µg mL^−1: human, pooled human plasma, pH 7.4, equilibrium dialysis 5 h
[2] = Metabolic stability, pooled human liver microsome incubations; conditions: for Predicted In Vivo Hepatic Clearance, CLH: from pHLM CLint, well-stirred model with plasma fu, Q 21 mL min^−1 kg^−1; for CLint scaled at 0.5 µM / half-life at 0.5 µM: human, microsomes; for CLint scaled at 0.5 µM: pH 7.4, Intrinsic clearance; for half-life at 0.5 µM: pH 7.4, T1/2 (min), pHLM 0.5 mg mL^−1, 0.5 µM, NADPH, 37 °C; for half-life at 0.5 µM / Microsomal Intrinsic Clearance, CLint micr: n ≥ 3 ± SD
[3] = Short-term plasma stability with and without esterase inhibitors; conditions: 37 °C; for remaining at 3 h, 5 µM / remaining at 5 h: human, pH 7.4, Parent Compound Remaining (%)
[4] = Metabolic stability, pooled human cryopreserved hepatocyte incubations; conditions: human, hepatocytes; for CLint scaled at 0.5 µM: Intrinsic clearance, pHHeps, alternative hepatocyte cell density 99x10^6 hepatocytes per gram liver
[5] = system: pooled human cryopreserved hepatocytes (pHHeps); assay: as above; conditions: for Predicted In Vivo Hepatic Clearance, CLH: from pHHeps CLint, well-stirred model with plasma fu, Q 21 mL min^−1 kg^−1
[6] = pHLM, alternative microsomal scaling factor 32 mg microsomal protein per gram liver
[7] = pHLM, alternative microsomal scaling factor 45 mg microsomal protein per gram liver
[8] = pHLM, scaling factor 32 mg microsomal protein per gram liver
[9] = pHLM, scaling factor 45 mg microsomal protein per gram liver
[10] = Esterase Inhibitors, pH 7.4, BNPP and PMSF 500 µM each
[11] = plasma, No Esterase Inhibitors, pH 7.4, pooled human plasma
[12] = T1/2 (min), pHHeps 0.25 million cells mL^−1, 0.5 µM, 37 °C, n ≥ 3 ± SD
[13] = pHHeps, 99x10^6 hepatocytes per gram liver
[14] = 37 °C, 10 µg mL^−1, read-out: PPB (%) (converted)
[15] = 37 °C, plasma, read-out: Fraction Unbound (fu)

Row | SMILES | Predicted In Vivo Hepatic Clearance, CLH [2] | Hepatic extraction ratio, EH ([2]; from pHLM incubations) | CLint scaled at 0.5 µM [2, 6] | CLint scaled at 0.5 µM [2, 7] | half-life at 0.5 µM [2] | % parent compound remaining, Average ([2]; pHLM, 3 min) | % parent compound remaining, Average ([2]; pHLM, 6 min) | % parent compound remaining, Average ([2]; pHLM, 9 min) | % parent compound remaining, Average ([2]; pHLM, 15 min) | % parent compound remaining, Average ([2]; pHLM, 30 min) | Microsomal Intrinsic Clearance, CLint micr ([2]; pHLM) | Hepatic extraction ratio, EH [2, 8] | Predicted in vivo hepatic clearance, CLH [2, 8] | Predicted in vivo hepatic clearance, CLH [2, 9] | remaining at 3 h, 5 µM [3, 10] | remaining at 3 h, 5 µM [3, 11] | CLint scaled at 0.5 µM [4] | half-life at 0.5 µM [4, 12] | Predicted In Vivo Hepatic Clearance, CLH [5] | Hepatic extraction ratio, EH ([5]; from pHHeps incubations) | other results
1 | COC(=O)[C@@H](NC(=O)c1nn(CCCCCF)c2ccccc12)C(C)(C)C [(S)-5F-MDMB-PINACA (2), methyl 2-[1-(5-fluoropentyl)-1H-indazole-3-carboxamido]-3,3-dimethylbutanoate] | 4.76 ± 0.17 mL/min/kg | 0.23 ± 0.008 | 171 mL/min/kg | 240 ± 11 mL/min/kg | 6.7 ± 0.31 min | 69.9% | 51.7% | 39.0% | 22.7% | 6.1% | 0.207 ± 0.009 mL min^−1 mg Microsomal Protein^−1 | 0.15 ± 0.006 | 3.18 mL/min/kg | 4.22 ± 0.15 mL/min/kg | 97 ± 1.1% | 92.5 ± 10.2% | 559 mL/min/kg | 13 ± 3.3 min | 8.05 ± 1.15 mL/min/kg | 0.38 ± 0.055 | PPB (%) ([1]; equilibrium dialysis 5 h, 37 °C, 10 µg mL^−1): 97.8 ± 0.19%; Fraction Unbound (fu) ([1]; equilibrium dialysis 5 h, 37 °C, plasma): 0.022 ± 0.0019; Hepatic extraction ratio, EH [2, 9]: 0.20 ± 0.007; half-life at 0.5 µM ([4]; half-life, pHHep lot HUE50-N): 13.3 ± 3.4 min; half-life ([5]; pHHep lot HUE50-P): 13.2 ± 3.4 min; Hepatic extraction ratio, EH [5, 13]: 0.37; Predicted in vivo hepatic clearance, CLH [5, 13]: 7.67 mL/min/kg; % parent compound remaining, Average ([5]; pHHeps, 3 min): 77.3%; % parent compound remaining, Average ([5]; pHHeps, 6 min): 66.9%; % parent compound remaining, Average ([5]; pHHeps, 9 min): 57.5%; % parent compound remaining, Average ([5]; pHHeps, 15 min): 48.3%; % parent compound remaining, Average ([5]; pHHeps, 30 min): 21.1%; % parent compound remaining, Average ([5]; pHHeps, 45 min): 10.6%; % parent compound remaining, Average ([5]; pHHeps, 60 min): 5.6%
2 | CC(C)[C@H](NC(=O)c1nn(Cc2ccc(F)cc2)c2ccccc12)C(N)=O [(S)-AB-FUBINACA (8), N-(1-amino-3-methyl-1-oxobutan-2-yl)-1-(4-fluorobenzyl)-1H-indazole-3-carboxamide] | 0.34 mL/min/kg and 0.34 ± 0.09 mL/min/kg | 0.02 and 0.02 ± 0.004 | 10 mL/min/kg | 14.1 mL/min/kg | 118 ± 28 min | 87.3% | 87.3% | 85.0% | 84.2% | 79.6% | 0.012 ± 0.003 mL min^−1 mg Microsomal Protein^−1 | 0.01 ± 0.003 | 0.21 ± 0.05 mL/min/kg | 0.29 ± 0.07 mL/min/kg | 103 ± 2.5% | 104 ± 1.1% | 101 ± 32 mL/min/kg | 76 ± 24 min | 2.06 ± 0.58 mL/min/kg | 0.10 ± 0.028 | fraction unbound at 5 h, 10 µg mL^−1 [1, 14]: 0.021; fraction unbound at 5 h, 10 µg mL^−1 [1, 15]: 0.021 ± 0.0044; Hepatic extraction ratio, EH [2, 9]: 0.01 ± 0.004; Hepatic extraction ratio, EH [5, 13]: 0.09 ± 0.026; Predicted in vivo hepatic clearance, CLH [5, 13]: 1.92 ± 0.55 mL/min/kg; % parent compound remaining, Average ([5]; pHHeps, 3 min): 93.3%; % parent compound remaining, Average ([5]; pHHeps, 6 min): 86.0%; % parent compound remaining, Average ([5]; pHHeps, 9 min): 85.5%; % parent compound remaining, Average ([5]; pHHeps, 15 min): 85.4%; % parent compound remaining, Average ([5]; pHHeps, 30 min): 72.4%; % parent compound remaining, Average ([5]; pHHeps, 45 min): 69.5%; % parent compound remaining, Average ([5]; pHHeps, 60 min): 66.6%
3 | C=CCCCn1cc(C(=O)N[C@H](C(=O)OC)C(C)C)c2ccccc21 [(S)-AMB-4en-PICA (7), methyl 3-methyl-2-[(1-pent-4-enylindole-3-carbonyl)amino] butanoate] | 9.29 ± 0.89 mL/min/kg | 0.44 ± 0.042 | 194 mL/min/kg | 273 mL/min/kg | 6 ± 1 min | 67.6% | 49.5% | 36.3% | 18.0% | 3.0% | 0.236 ± 0.042 mL min^−1 mg Microsomal Protein^−1 | 0.33 ± 0.038 | 6.86 mL/min/kg | 8.51 mL/min/kg | 95.6 ± 6.8% | 92.6 ± 8.3% | 1120 mL/min/kg | 6.9 ± 2.1 min | 15.56 ± 1.24 mL/min/kg | 0.74 ± 0.059 | fraction unbound at 5 h, 10 µg mL^−1 [1, 14]: 0.053; fraction unbound at 5 h, 10 µg mL^−1 [1, 15]: 0.053 ± 0.0037; Hepatic extraction ratio, EH [5, 13]: 0.73 ± 0.061; Predicted in vivo hepatic clearance, CLH [5, 13]: 15.25 ± 1.28 mL/min/kg; % parent compound remaining, Average ([5]; pHHeps, 3 min): 68.4%; % parent compound remaining, Average ([5]; pHHeps, 6 min): 54.6%; % parent compound remaining, Average ([5]; pHHeps, 9 min): 33.2%; % parent compound remaining, Average ([5]; pHHeps, 15 min): 19.4%; % parent compound remaining, Average ([5]; pHHeps, 30 min): 6.5%; % parent compound remaining, Average ([5]; pHHeps, 45 min): 1.9%; % parent compound remaining, Average ([5]; pHHeps, 60 min): 0.6%
4 | COC(=O)[C@@H](NC(=O)c1cn(CC2CCCCC2)c2ccccc12)C(C)C [(S)-AMB-CHMICA (9), methyl [1-(cyclohexylmethyl)-1H-indole-3-carbonyl]valinate] | 4.37 ± 0.68 mL/min/kg | 0.21 ± 0.032 | 282 mL/min/kg | 397 mL/min/kg | 4.1 ± 0.75 min | 52.7% | 35.1% | 25.3% | 9.9% | 2.5% | 0.343 ± 0.069 mL min^−1 mg Microsomal Protein^−1 | 0.14 ± 0.024 | 2.91 ± 0.50 mL/min/kg | 3.87 ± 0.62 mL/min/kg | 90.5 ± 3.4% | 93.9 ± 9.3% | 935 ± 44.8 mL/min/kg | 7.6 ± 0.35 min | 7.68 ± 0.22 mL/min/kg | 0.37 ± 0.011 | fraction unbound at 5 h, 10 µg mL^−1 [1, 14]: 0.012; fraction unbound at 5 h, 10 µg mL^−1 [1, 15]: 0.012 ± 0.0006; Hepatic extraction ratio, EH [2, 9]: 0.18 ± 0.030; Hepatic extraction ratio, EH [5, 13]: 0.35 ± 0.011; Predicted in vivo hepatic clearance, CLH [5, 13]: 7.31 ± 0.23 mL/min/kg; % parent compound remaining, Average ([5]; pHHeps, 3 min): 65.0%; % parent compound remaining, Average ([5]; pHHeps, 6 min): 58.4%; % parent compound remaining, Average ([5]; pHHeps, 9 min): 43.3%; % parent compound remaining, Average ([5]; pHHeps, 15 min): 23.8%; % parent compound remaining, Average ([5]; pHHeps, 30 min): 8.7%; % parent compound remaining, Average ([5]; pHHeps, 45 min): 3.5%; % parent compound remaining, Average ([5]; pHHeps, 60 min): 1.5%
5 | COC(=O)[C@@H](NC(=O)c1nn(Cc2ccc(F)cc2)c2ccccc12)C(C)C [(S)-AMB-FUBINACA (1), methyl [1-(4-fluorobenzyl)-1H-indazole-3-carbonyl]valinate] | 15.27 ± 0.14 mL/min/kg | 0.73 ± 0.006 | 1790 mL/min/kg | 2520 mL/min/kg | 0.6 ± 0.02 min | 3.8% | 0.7% | 0.2% | 0.1% | 0.3% | 2.182 ± 0.071 mL min^−1 mg Microsomal Protein^−1 | 0.62 ± 0.008 | 12.99 mL/min/kg | 14.60 mL/min/kg | 96.1 ± 1.6% | 96.6 ± 3.8% | 2980 mL/min/kg | 2.5 ± 0.55 min | 15.52 ± 0.85 mL/min/kg | 0.74 ± 0.041 | recovery (total peak area in dialysed samples vs 4 °C samples) ([1]; PPB thermal stability control, 5 h): 77 ± 4.4%; fraction unbound at 5 h, 10 µg mL^−1 [1, 14]: 0.019; fraction unbound at 5 h, 10 µg mL^−1 [1, 15]: 0.019 ± 0.0008; Parent Compound Remaining (%), Esterase Inhibitors ([3]; 5 h, pH 7.4, BNPP and PMSF 500 µM each): 93.5 ± 0.1%; Parent Compound Remaining (%), No Esterase Inhibitors ([3]; 5 h, pH 7.4, pooled human plasma): 85.9 ± 4.0%; remaining at 5 h ([3]; Esterase Inhibitors, 5 h, pH 7.4, BNPP and PMSF 500 µM each): 94 ± 0.1%; remaining at 5 h ([3]; plasma, No Esterase Inhibitors, 5 h, pH 7.4, pooled human plasma): 86 ± 4%; Hepatic extraction ratio, EH [5, 13]: 0.72 ± 0.042; Predicted in vivo hepatic clearance, CLH [5, 13]: 15.21 ± 0.88 mL/min/kg; % parent compound remaining, Average ([5]; pHHeps, 3 min): 37.0%; % parent compound remaining, Average ([5]; pHHeps, 6 min): 18.7%; % parent compound remaining, Average ([5]; pHHeps, 9 min): 14.7%; % parent compound remaining, Average ([5]; pHHeps, 15 min): 6.2%; % parent compound remaining, Average ([5]; pHHeps, 30 min): 1.4%; % parent compound remaining, Average ([5]; pHHeps, 45 min): 1.1%; % parent compound remaining, Average ([5]; pHHeps, 60 min): 0.8%
